The values that follow come from ChEMBL document CHEMBL1821677, “Identification of novel allosteric modulators for the G-protein coupled US28 receptor of human cytomegalovirus” (Bioorg Med Chem Lett, 2011).

Calls of active or inactive are those of the source. The rule behind the calls is not given here.

The nature of series [1]: Inverse agonist activity at HCMV TB40/E US28 expressed in human HEK cells assessed as Elk-1 activation preincubated for 1 hrs measured after 20 to 24 hrs by luciferase reporter gene assay. In kind it is functional, cell-based. As to conditions: Human betaherpesvirus 5, TB40/E, HEK293.
A short description of series [2]: Cytotoxicity against mock transfected human HEK cells at 10 uM after 20 to 24 hrs by Cell titer cell proliferation assay. In kind it is cell-based. As to conditions: hek293, 10 µM.
Series [3] has as its system G-protein coupled receptor homolog US28 (Human cytomegalovirus). Nature of the series: Efficacy at HCMV TB40/E US28 expressed in human HEK cells assessed as Elk-1 activation preincubated for 1 hrs measured after 20 to 24 hrs by PathDetect trans Elk-1 reporter gene assay relative to control. As to conditions: Human betaherpesvirus 5, HEK293.
Series [4] concerns the target D(2) dopamine receptor (Homo sapiens) (UniProt P14416). Nature of the series: Binding affinity to human dopamine D2L receptor expressed in HEK cells assessed as Elk-1 activation preincubated for 1 hrs measured after 20 to 24 hrs by PathDetect trans Elk-1 reporter gene assay. In kind it is cell-based. As to conditions: HEK293.
Series [5] shares this target. Kind of series: Binding affinity to dopamine D2L receptor.

Chain of D(2) dopamine receptor (Homo sapiens) (P14416 whole entry): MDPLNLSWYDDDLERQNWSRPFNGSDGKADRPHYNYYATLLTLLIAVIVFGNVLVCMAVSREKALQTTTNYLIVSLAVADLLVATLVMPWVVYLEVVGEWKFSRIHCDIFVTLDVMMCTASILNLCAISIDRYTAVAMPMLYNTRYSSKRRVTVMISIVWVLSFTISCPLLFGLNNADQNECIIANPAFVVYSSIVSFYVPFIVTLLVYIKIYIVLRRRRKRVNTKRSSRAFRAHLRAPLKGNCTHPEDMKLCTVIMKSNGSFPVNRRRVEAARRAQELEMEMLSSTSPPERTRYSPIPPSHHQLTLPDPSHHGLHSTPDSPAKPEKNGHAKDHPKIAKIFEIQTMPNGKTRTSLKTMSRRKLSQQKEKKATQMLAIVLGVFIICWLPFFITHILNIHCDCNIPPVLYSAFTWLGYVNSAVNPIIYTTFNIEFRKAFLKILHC

As for `CC1(COC(=O)Cc2ccccc2)Cc2ccccc2CN1C(=O)Cc1ccccc1` (configuration not stated), the EC50 in series [1] (read-out: EC50) is 3400 nM; in series [1] (read-out: pEC50 (converted)), 3470 nM. Also, in series [2], the Activity result was “Non-toxic”. Besides, the Efficacy in series [3] is -37%.

`CC1(CO)Cc2ccccc2C(=O)N1c1ccccc1` (configuration not stated): the results for the EC50 in series [1] (read-out: EC50) and in series [1] (read-out: pEC50 (converted)) were 4400 nM and 4370 nM, respectively. For the same compound, in series [3], the Efficacy was determined as 41%.

On to `CSc1ccc2c(c1)C(N1CCN(C)CC1)Cc1ccccc1S2` (configuration not stated) [METITEPINE], for which the figures for the EC50 in series [1] (read-out: EC50) and in series [1] (read-out: pEC50 (converted)) were 350 nM and 355 nM, respectively. For the same compound, the Efficacy in series [3] was determined as 10%.

Consider `CCC[C@H]1Cc2c(Cl)cccc2[C@@H](c2ccccc2)N1` (relative stereo), for which the EC50 in series [1] (read-out: EC50) was 1500 nM; in series [1] (read-out: pEC50 (converted)) it was 1550 nM. In addition, in series [3], the Efficacy worked out at 27%.

Consider `CC1(COC(=O)c2ccccc2)Cc2ccccc2CN1C(=O)c1ccccc1` (configuration not stated), for which the EC50 in series [1] (read-out: EC50) is 8500 nM; in series [1] (read-out: pEC50 (converted)), 8510 nM. Besides, in series [2], the Activity result is “Toxic”. For the same compound, in series [3], the Efficacy is -62%.

As to `CCCCCC[C@H]1Cc2c(Cl)cccc2[C@@H](c2ccccc2)N1` (relative stereo), the EC50 in series [1] (read-out: EC50) was 2300 nM; in series [1] (read-out: pEC50 (converted)), 2290 nM. The Efficacy in series [3] was 21%.

In the case of `CCCC[C@H]1Cc2ccccc2[C@@H](c2ccccc2)N1` (relative stereo), the EC50 was 280 nM in series [1] (read-out: EC50) and 275 nM in series [1] (read-out: pEC50 (converted)). In addition, the outcome in series [4] was Active. Besides, in series [3], the Efficacy stood at 22%.

For the compound `CCCC[C@@H]1Cc2c(Cl)cccc2[C@@H](c2ccccc2)N1` (relative stereo), the results for the EC50 in series [1] (read-out: EC50) and in series [1] (read-out: pEC50 (converted)) were 1400 nM and 1410 nM, respectively. The Efficacy in series [3] came to 16%.

As for `CC1(CCOC(=O)c2ccccc2)Cc2ccccc2CN1C(=O)c1ccccc1` (configuration not stated), the EC50 in series [1] (read-out: EC50) and in series [1] (read-out: pEC50 (converted)) was 13500 nM each time. Besides, in series [2], the Activity result was “Toxic”. For the same compound, the Efficacy in series [3] was -70%.

Take `CC1(CCOC(=O)Cc2ccccc2)Cc2ccccc2CN1C(=O)Cc1ccccc1` (configuration not stated): the EC50 in series [1] (read-out: EC50) is 7500 nM; in series [1] (read-out: pEC50 (converted)), 7590 nM. The Activity result in series [2] is listed as “Toxic”. The Efficacy in series [3] was -51%.

Take `CCCC[C@@H]1Cc2ccc(F)cc2[C@@H](c2ccccc2)N1` (relative stereo): the EC50 in series [1] (read-out: EC50) and in series [1] (read-out: pEC50 (converted)) was 2000 nM throughout. Moreover, the Efficacy in series [3] is 15%.

For the compound `CCCC[C@H]1Cc2ccc(F)cc2[C@@H](c2ccccc2)N1` (relative stereo), the results for the EC50 in series [1] (read-out: EC50) and in series [1] (read-out: pEC50 (converted)) were 1800 nM and 1780 nM, respectively. Also, the Efficacy in series [3] stood at 15%.

`N#CC(CCCN1CCC(O)(c2ccc(Cl)cc2)CC1)(c1ccccc1)c1ccccc1` [BERLEX COMPOUND]: the EC50 in series [1] (read-out: EC50) was 4500 nM; in series [1] (read-out: pEC50 (converted)) it was 4570 nM. This compound also displayed an Activity in series [5] of 2 µM. Moreover, the Efficacy in series [3] is -22%.

As to `CCCCCCCCCC(=O)N(CCN(C)C)C1CCCCC12Cc1ccccc1C(=O)N2` (configuration not stated), the values for the EC50 in series [1] (read-out: EC50) and in series [1] (read-out: pEC50 (converted)) were 4800 nM and 4790 nM, respectively. Besides, in series [3], the Efficacy is -22%.

As for `CC1(COC(=O)c2ccco2)Cc2ccccc2CN1C(=O)c1ccco1` (configuration not stated), the EC50 was 7400 nM in series [1] (read-out: EC50) and 7410 nM in series [1] (read-out: pEC50 (converted)). For the same compound, the Activity result in series [2] is reported as “Non-toxic”. In addition, the Efficacy in series [3] is -18%.

Regarding `CCCCCCCCCC(=O)N(CCN(C)C)CC1(C)Cc2ccccc2C(=O)N1` (configuration not stated), the EC50 in series [1] (read-out: EC50) was 1500 nM; in series [1] (read-out: pEC50 (converted)), 1510 nM. Besides, in series [2], the Activity result was “Non-toxic”. Besides, in series [3], the Efficacy was -20%.

On to `CCCC[C@H]1Cc2ccc(Cl)cc2[C@@H](c2ccccc2)N1` (relative stereo), for which the results for the EC50 in series [1] (read-out: EC50) and in series [1] (read-out: pEC50 (converted)) were 7800 nM and 7760 nM, respectively. The Efficacy in series [3] came out at 12%.

For `CCCC[C@H]1Cc2c(Cl)cccc2[C@@H](c2ccccc2)N1` (relative stereo), the EC50 in series [1] (read-out: EC50) was 130 nM; in series [1] (read-out: pEC50 (converted)), 129 nM. In addition, the outcome in series [4] was Active. In series [3], the Efficacy came out at 21%.

For the compound `CC1(CCO)Cc2ccccc2C(=O)N1c1ccccc1` (configuration not stated), the EC50 is 1000 nM in series [1] (read-out: EC50) and 1020 nM in series [1] (read-out: pEC50 (converted)). Further, the Activity result in series [2] is given as “Non-toxic”. Besides, the Efficacy in series [3] is -14%.
